# Reference: patent US7279161B2, “Factor IX/factor IXa activating antibodies and antibody derivatives” (Baxter Aktiengesellschaft, priority 1999, dated 2007)
# System: FVIII deficient plasma
# Experiment: aPTT based one stage clotting assay in FVIII deficient plasma
# Format: biochemical, human
# Method in brief: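 Test samples preincubated 4 min with FVIII-deficient plasma and aPTT reagent (DAPTTIN or Pathromtin SL), optionally with 50 ng activated FIX; clotting started with 25 mM CaCl2. Read-out is clotting time from start to clot formation, set against FVIII, buffer or scrambled-peptide controls.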
sequence,measurement,setting,value
RRREGGGYYVNWYFDRRR [A1/3],reduction in the clotting time,"Pathromtin SL, in the absence of FIXa",no reduction of the clotting time was detectable
same,reduction in the clotting time,"Pathromtin SL, in the presence of FIXa",dose dependent reduction in the clotting time
same,average clotting time,"Table 3A Exp. 1, DAPTTIN, 2.5 μM, 2.2 nM FIXa",91 s
same,clotting time,"Table 3A Exp. 1, DAPTTIN, 2.5 μM, 2.2 nM FIXa, duplicate 1",91.1 s
same,clotting time,"Table 3A Exp. 1, DAPTTIN, 2.5 μM, 2.2 nM FIXa, duplicate 2",91 s
same,average clotting time,"Table 3A Exp. 1, DAPTTIN, 2.5 μM, w/o FIXa",105 s
same,clotting time,"Table 3A Exp. 1, DAPTTIN, 2.5 μM, w/o FIXa, duplicate 1",105.2 s
same,clotting time,"Table 3A Exp. 1, DAPTTIN, 2.5 μM, w/o FIXa, duplicate 2",104.8 s
same,average clotting time,"Table 3A Exp. 1, DAPTTIN, 7.5 μM, 2.2 nM FIXa",73 s
same,clotting time,"Table 3A Exp. 1, DAPTTIN, 7.5 μM, 2.2 nM FIXa, duplicate 1",73.1 s
same,clotting time,"Table 3A Exp. 1, DAPTTIN, 7.5 μM, 2.2 nM FIXa, duplicate 2",72.7 s
same,average clotting time,"Table 3A Exp. 1, DAPTTIN, 7.5 μM, w/o FIXa",98 s
same,clotting time,"Table 3A Exp. 1, DAPTTIN, 7.5 μM, w/o FIXa, duplicate 1",97.8 s
same,clotting time,"Table 3A Exp. 1, DAPTTIN, 7.5 μM, w/o FIXa, duplicate 2",97.9 s
same,average clotting time,"Table 3A Exp. 1, DAPTTIN, 12.5 μM, 2.2 nM FIXa",60 s
same,clotting time,"Table 3A Exp. 1, DAPTTIN, 12.5 μM, 2.2 nM FIXa, duplicate 1",60.2 s
same,clotting time,"Table 3A Exp. 1, DAPTTIN, 12.5 μM, 2.2 nM FIXa, duplicate 2",58.9 s
same,average clotting time,"Table 3A Exp. 1, DAPTTIN, 12.5 μM, w/o FIXa",80 s
same,clotting time,"Table 3A Exp. 1, DAPTTIN, 12.5 μM, w/o FIXa, duplicate 1",80.2 s
same,clotting time,"Table 3A Exp. 1, DAPTTIN, 12.5 μM, w/o FIXa, duplicate 2",80.6 s
same,average clotting time,"Table 3A Exp. 1, DAPTTIN, 15 μM, 2.2 nM FIXa",60 s
same,clotting time,"Table 3A Exp. 1, DAPTTIN, 15 μM, 2.2 nM FIXa, duplicate 1",59.3 s
same,clotting time,"Table 3A Exp. 1, DAPTTIN, 15 μM, 2.2 nM FIXa, duplicate 2",59.9 s
same,average clotting time,"Table 3A Exp. 1, DAPTTIN, 15 μM, w/o FIXa",78 s
same,clotting time,"Table 3A Exp. 1, DAPTTIN, 15 μM, w/o FIXa, duplicate 1",78.2 s
same,clotting time,"Table 3A Exp. 1, DAPTTIN, 15 μM, w/o FIXa, duplicate 2",77.1 s
same,average clotting time,"Table 3A Exp. 2, DAPTTIN, 1.25 μM, 2.2 nM FIXa",91 s
same,clotting time,"Table 3A Exp. 2, DAPTTIN, 1.25 μM, 2.2 nM FIXa, duplicate 1",90.7 s
same,clotting time,"Table 3A Exp. 2, DAPTTIN, 1.25 μM, 2.2 nM FIXa, duplicate 2",90.8 s
same,average clotting time,"Table 3A Exp. 2, DAPTTIN, 1.25 μM, w/o FIXa",109 s
same,clotting time,"Table 3A Exp. 2, DAPTTIN, 1.25 μM, w/o FIXa, duplicate 1",108.7 s
same,clotting time,"Table 3A Exp. 2, DAPTTIN, 1.25 μM, w/o FIXa, duplicate 2",109.3 s
same,average clotting time,"Table 3A Exp. 2, DAPTTIN, 2.5 μM, 2.2 nM FIXa",88 s
same,clotting time,"Table 3A Exp. 2, DAPTTIN, 2.5 μM, 2.2 nM FIXa, duplicate 1",88 s
same,clotting time,"Table 3A Exp. 2, DAPTTIN, 2.5 μM, 2.2 nM FIXa, duplicate 2",88.8 s
same,average clotting time,"Table 3A Exp. 2, DAPTTIN, 2.5 μM, w/o FIXa",110 s
same,clotting time,"Table 3A Exp. 2, DAPTTIN, 2.5 μM, w/o FIXa, duplicate 1",110.1 s
same,clotting time,"Table 3A Exp. 2, DAPTTIN, 2.5 μM, w/o FIXa, duplicate 2",108.9 s
same,average clotting time,"Table 3A Exp. 2, DAPTTIN, 5 μM, 2.2 nM FIXa",77 s
same,clotting time,"Table 3A Exp. 2, DAPTTIN, 5 μM, 2.2 nM FIXa, duplicate 1",77 s
same,clotting time,"Table 3A Exp. 2, DAPTTIN, 5 μM, 2.2 nM FIXa, duplicate 2",76 s
same,average clotting time,"Table 3A Exp. 2, DAPTTIN, 5 μM, w/o FIXa",104 s
same,clotting time,"Table 3A Exp. 2, DAPTTIN, 5 μM, w/o FIXa, duplicate 1",103.4 s
same,clotting time,"Table 3A Exp. 2, DAPTTIN, 5 μM, w/o FIXa, duplicate 2",104.8 s
same,average clotting time,"Table 3A Exp. 2, DAPTTIN, 7.5 μM, 2.2 nM FIXa",73 s
same,clotting time,"Table 3A Exp. 2, DAPTTIN, 7.5 μM, 2.2 nM FIXa, duplicate 1",71.6 s
same,clotting time,"Table 3A Exp. 2, DAPTTIN, 7.5 μM, 2.2 nM FIXa, duplicate 2",73.9 s
same,average clotting time,"Table 3A Exp. 2, DAPTTIN, 7.5 μM, w/o FIXa",100 s
same,clotting time,"Table 3A Exp. 2, DAPTTIN, 7.5 μM, w/o FIXa, duplicate 1",100.1 s
same,clotting time,"Table 3A Exp. 2, DAPTTIN, 7.5 μM, w/o FIXa, duplicate 2",100.5 s
same,average clotting time,"Table 3A Exp. 2, DAPTTIN, 10 μM, 2.2 nM FIXa",63 s
same,clotting time,"Table 3A Exp. 2, DAPTTIN, 10 μM, 2.2 nM FIXa, duplicate 1",63.1 s
same,clotting time,"Table 3A Exp. 2, DAPTTIN, 10 μM, 2.2 nM FIXa, duplicate 2",62.5 s
same,average clotting time,"Table 3A Exp. 2, DAPTTIN, 10 μM, w/o FIXa",79 s
same,clotting time,"Table 3A Exp. 2, DAPTTIN, 10 μM, w/o FIXa, duplicate 1",79.1 s
same,clotting time,"Table 3A Exp. 2, DAPTTIN, 10 μM, w/o FIXa, duplicate 2",78.5 s
same,average clotting time,"Table 3A Exp. 2, DAPTTIN, 12.5 μM, 2.2 nM FIXa",57 s
same,clotting time,"Table 3A Exp. 2, DAPTTIN, 12.5 μM, 2.2 nM FIXa, duplicate 1",56.7 s
same,clotting time,"Table 3A Exp. 2, DAPTTIN, 12.5 μM, 2.2 nM FIXa, duplicate 2",56.7 s
same,average clotting time,"Table 3A Exp. 2, DAPTTIN, 12.5 μM, w/o FIXa",85 s
same,clotting time,"Table 3A Exp. 2, DAPTTIN, 12.5 μM, w/o FIXa, duplicate 1",83.6 s
same,clotting time,"Table 3A Exp. 2, DAPTTIN, 12.5 μM, w/o FIXa, duplicate 2",85.5 s
same,average clotting time,"Table 3B, Pathromtin SL, 1 μM, 2.2 nM FIXa",105 s
same,clotting time,"Table 3B, Pathromtin SL, 1 μM, 2.2 nM FIXa, duplicate 1",103.7 s
same,clotting time,"Table 3B, Pathromtin SL, 1 μM, 2.2 nM FIXa, duplicate 2",105.9 s
same,average clotting time,"Table 3B, Pathromtin SL, 1 μM, w/o FIXa",139 s
same,clotting time,"Table 3B, Pathromtin SL, 1 μM, w/o FIXa, duplicate 1",138.3 s
same,clotting time,"Table 3B, Pathromtin SL, 1 μM, w/o FIXa, duplicate 2",138.8 s
same,average clotting time,"Table 3B, Pathromtin SL, 5 μM, 2.2 nM FIXa",88 s
same,clotting time,"Table 3B, Pathromtin SL, 5 μM, 2.2 nM FIXa, duplicate 1",86.6 s
same,clotting time,"Table 3B, Pathromtin SL, 5 μM, 2.2 nM FIXa, duplicate 2",90.2 s
same,average clotting time,"Table 3B, Pathromtin SL, 5 μM, w/o FIXa",154 s
same,clotting time,"Table 3B, Pathromtin SL, 5 μM, w/o FIXa, duplicate 1",152.6 s
same,clotting time,"Table 3B, Pathromtin SL, 5 μM, w/o FIXa, duplicate 2",155.6 s
same,average clotting time,"Table 3B, Pathromtin SL, 10 μM, 2.2 nM FIXa",78 s
same,clotting time,"Table 3B, Pathromtin SL, 10 μM, 2.2 nM FIXa, duplicate 1",76.2 s
same,clotting time,"Table 3B, Pathromtin SL, 10 μM, 2.2 nM FIXa, duplicate 2",79.8 s
same,average clotting time,"Table 3B, Pathromtin SL, 10 μM, w/o FIXa",135 s
same,clotting time,"Table 3B, Pathromtin SL, 10 μM, w/o FIXa, duplicate 1",135.7 s
same,clotting time,"Table 3B, Pathromtin SL, 10 μM, w/o FIXa, duplicate 2",134.6 s
same,average clotting time,"Table 3B, Pathromtin SL, 15 μM, 2.2 nM FIXa",75 s
same,clotting time,"Table 3B, Pathromtin SL, 15 μM, 2.2 nM FIXa, duplicate 1",75.4 s
same,clotting time,"Table 3B, Pathromtin SL, 15 μM, 2.2 nM FIXa, duplicate 2",75.2 s
same,average clotting time,"Table 3B, Pathromtin SL, 15 μM, w/o FIXa",151 s
same,clotting time,"Table 3B, Pathromtin SL, 15 μM, w/o FIXa, duplicate 1",152.8 s
same,clotting time,"Table 3B, Pathromtin SL, 15 μM, w/o FIXa, duplicate 2",149.3 s
same,average clotting time,"Table 4, 1.25 μM, 2.2 nM FIXa",95 s
same,clotting time,"Table 4, 1.25 μM, 2.2 nM FIXa, duplicate 1",94.4 s
same,clotting time,"Table 4, 1.25 μM, 2.2 nM FIXa, duplicate 2",95 s
same,average clotting time,"Table 4, 1.25 μM, w/o FIXa",107 s
same,clotting time,"Table 4, 1.25 μM, w/o FIXa, duplicate 1",106.7 s
same,clotting time,"Table 4, 1.25 μM, w/o FIXa, duplicate 2",107 s
same,average clotting time,"Table 4, 2.5 μM, 2.2 nM FIXa",93 s
same,clotting time,"Table 4, 2.5 μM, 2.2 nM FIXa, duplicate 1",93.6 s
same,clotting time,"Table 4, 2.5 μM, 2.2 nM FIXa, duplicate 2",93.3 s
same,average clotting time,"Table 4, 2.5 μM, w/o FIXa",108 s
same,clotting time,"Table 4, 2.5 μM, w/o FIXa, duplicate 1",107.9 s
same,clotting time,"Table 4, 2.5 μM, w/o FIXa, duplicate 2",107.6 s
same,average clotting time,"Table 4, 5 μM, 2.2 nM FIXa",89 s
same,clotting time,"Table 4, 5 μM, 2.2 nM FIXa, duplicate 1",89.7 s
same,clotting time,"Table 4, 5 μM, 2.2 nM FIXa, duplicate 2",88.3 s
same,average clotting time,"Table 4, 5 μM, w/o FIXa",108 s
same,clotting time,"Table 4, 5 μM, w/o FIXa, duplicate 1",108.4 s
same,clotting time,"Table 4, 5 μM, w/o FIXa, duplicate 2",107.7 s
same,average clotting time,"Table 4, 7.5 μM, 2.2 nM FIXa",81 s
same,clotting time,"Table 4, 7.5 μM, 2.2 nM FIXa, duplicate 1",80.7 s
same,clotting time,"Table 4, 7.5 μM, 2.2 nM FIXa, duplicate 2",80.5 s
same,average clotting time,"Table 4, 7.5 μM, w/o FIXa",105 s
same,clotting time,"Table 4, 7.5 μM, w/o FIXa, duplicate 1",105.2 s
same,clotting time,"Table 4, 7.5 μM, w/o FIXa, duplicate 2",105.2 s
same,average clotting time,"Table 4, 10 μM, 2.2 nM FIXa",73 s
same,clotting time,"Table 4, 10 μM, 2.2 nM FIXa, duplicate 1",72 s
same,clotting time,"Table 4, 10 μM, 2.2 nM FIXa, duplicate 2",73.2 s
same,average clotting time,"Table 4, 10 μM, w/o FIXa",104 s
same,clotting time,"Table 4, 10 μM, w/o FIXa, duplicate 1",104.4 s
same,clotting time,"Table 4, 10 μM, w/o FIXa, duplicate 2",104.5 s
same,average clotting time,"Table 4, 12.5 μM, 2.2 nM FIXa",67 s
same,clotting time,"Table 4, 12.5 μM, 2.2 nM FIXa, duplicate 1",65 s
same,clotting time,"Table 4, 12.5 μM, 2.2 nM FIXa, duplicate 2",68 s
same,average clotting time,"Table 4, 12.5 μM, w/o FIXa",100 s
same,clotting time,"Table 4, 12.5 μM, w/o FIXa, duplicate 1",99.4 s
same,clotting time,"Table 4, 12.5 μM, w/o FIXa, duplicate 2",100.5 s
same,average clotting time,"Table 4, 15 μM, 2.2 nM FIXa",56 s
same,clotting time,"Table 4, 15 μM, 2.2 nM FIXa, duplicate 1",56.1 s
same,clotting time,"Table 4, 15 μM, 2.2 nM FIXa, duplicate 2",55.5 s
same,average clotting time,"Table 4, 15 μM, w/o FIXa",78 s
same,clotting time,"Table 4, 15 μM, w/o FIXa, duplicate 1",77.8 s
same,clotting time,"Table 4, 15 μM, w/o FIXa, duplicate 2",78 s
